Measured values: the supplement of paper PMC10331698
± gives the standard deviation of the averaged measurements.

Experiments:
Assay in all cases: level (log10 ratio to DMSO vehicle control); higher = higher biomarker level / cell amount than vehicle control
[1] = compound: OCC(F)(F)OC(F)(F)C(F)(F)OC(F)(F)C(F)(F)OC(F)(F)CO [1H,1H,11H,11H-Perfluorotetraethylene glycol] (in DMSO)
Experimental: (§1)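 BioMAP Diversity Plus panel of 12 human primary cell co-culture systems (3C, 4H, LPS, SAg, BT, BF4T, BE3C, CASM3C, HDF3CGF, KF3CT, MyoF, Mphg). Compounds were added 1 h before stimulation and left for 24 h (MyoF 48 h; BT 72 h for soluble read-outs or 6 d for IgG). Biomarkers were read by ELISA, cytotoxicity by SRB, PBMC viability and proliferation by Alamar Blue. Each well value was divided by the mean of 8 DMSO control wells on the same plate and log10 transformed; duplicate blinded samples were tested at 4 concentrations.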

[2] = compound: OCCC(F)(F)C(F)(F)C(F)(F)C(F)(F)F [4:2 Fluorotelomer alcohol] (in DMSO)
Experimental: as §1

[3] = compound: O=S(=O)(O)CCC(F)(F)C(F)(F)C(F)(F)C(F)(F)C(F)(F)C(F)(F)C(F)(F)C(F)(F)F [8:2 Fluorotelomer sulfonic acid] (in DMSO)
Experimental: as §1

[4] = compound: C[C@@H]1C[C@H]2[C@@H]3CCC4=CC(=O)C=C[C@]4(C)[C@@]3(F)[C@@H](O)C[C@]2(C)[C@@]1(O)C(=O)COP(=O)(O)O [Dexamethasone sodium phosphate] (in DMSO)
Experimental: as §1

[5] = compound: CO[Si](C)(CCC(F)(F)C(F)(F)C(F)(F)C(F)(F)C(F)(F)C(F)(F)F)OC [Dimethoxymethyl((perfluorohexyl)ethyl)silane] (in DMSO)
Experimental: as §1

[6] = compound: O=C(O)C(F)(OC(F)(F)C(F)(OC(F)(F)C(F)(OC(F)(F)C(F)(F)C(F)(F)F)C(F)(F)F)C(F)(F)F)C(F)(F)F [Perfluoro-(2,5,8-trimethyl-3,6,9-trioxadodecanoic)acid] (in DMSO)
Experimental: as §1

Row | Test System | level (log10) ([1]; 6700 nM) | level (log10) ([1]; 20000 nM) | level (log10) ([1]; 60000 nM) | level (log10) ([2]; 6700 nM) | level (log10) ([2]; 20000 nM) | level (log10) ([2]; 60000 nM) | level (log10) ([3]; 6700 nM) | level (log10) ([3]; 20000 nM) | level (log10) ([3]; 60000 nM) | level (log10) ([4]; 1500 nM) | level (log10) ([4]; 4400 nM) | level (log10) ([4]; 13000 nM) | level (log10) ([4]; 40000 nM) | level (log10) ([5]; 6700 nM) | level (log10) ([5]; 20000 nM) | level (log10) ([6]; 1100 nM) | level (log10) ([6]; 3300 nM) | level (log10) ([6]; 10000 nM)
1 | BE3C:CD87/uPAR | 0.0025 ± 0.0078 | 0.01 ± 0.0071 | -0.0355 ± 0.0078 | 0.005 ± 0.0099 | -0.0025 ± 0.0064 | 0.0145 ± 0.0021 | 0.0225 ± 0.0035 | 0.0135 ± 0.011 | -0.01 ± 0.031 | -0.08 ± 0.048 | -0.102 ± 0.0057 | -0.108 ± 0.033 | -0.096 ± 0.0042 | 0.0225 ± 0.013 | 0.0075 ± 0.0078 | -0.0035 ± 0.0021 | -0.011 ± 0.0057 | 0.025 ± 0.024
2 | BE3C:CXCL8/IL-8 | -0.0165 ± 0.0035 | -0.071 ± 0.033 | -0.0405 ± 0.056 | -0.001 ± 0.0085 | -0.006 ± 0.0014 | 0.043 ± 0.04 | -0.0045 ± 0.022 | -0.06 ± 0.0014 | -0.134 ± 0.005 | -0.094 ± 0.044 | -0.137 ± 0.015 | -0.171 ± 0.0092 | -0.157 ± 0.011 | -0.006 ± 0.0085 | 0.038 ± 0.038 | 0.05 ± 0.038 | 0.039 ± 0.023 | 0.0625 ± 0.00071
3 | BE3C:CXCL9/MIG | -0.005 ± 0.0042 | 0.004 ± 0.0071 | -0.0355 ± 0.015 | -0.0055 ± 0.016 | 0.0065 ± 0.0078 | 0.0025 ± 0.0021 | -0.002 ± 0.0085 | -0.015 ± 0.0028 | -0.03 ± 0.011 | -0.0065 ± 0.019 | 0.003 ± 0.02 | -0.01 ± 0.014 | -0.0085 ± 0.00071 | 0.002 ± 0.0042 | 0.001 ± 0.0071 | -0.001 ± 0.0071 | 0.0025 ± 0.0078 | 0.0045 ± 0.015
4 | BE3C:CXCL10/IP-10 | -0.012 ± 0.0028 | -0.0315 ± 0.021 | -0.167 ± 0.028 | -0.009 ± 0.021 | 0.002 ± 0.016 | -0.0015 ± 0.0035 | -0.0205 ± 0.012 | -0.122 ± 0.019 | -0.237 ± 0.02 | 0.0215 ± 0.021 | 0.014 ± 0.028 | 0 ± 0.02 | -0.0035 ± 0.016 | -0.0025 ± 0.0078 | -0.0065 ± 0.0021 | 0.035 ± 0.024 | 0.0325 ± 0.015 | 0.036 ± 0.0071
5 | BE3C:CXCL11/I-TAC | -0.0135 ± 0.0021 | -0.03 ± 0.0028 | -0.092 ± 0.028 | 0.004 ± 0.0014 | 0.0075 ± 0.0078 | 0.0155 ± 0.012 | 0.0385 ± 0.0021 | 0.016 ± 0.0071 | -0.0915 ± 0.015 | 0 ± 0.018 | 0.0145 ± 0.0021 | -0.0175 ± 0.04 | -0.0215 ± 0.0078 | -0.0055 ± 0.019 | -0.0125 ± 0.0035 | 0.0145 ± 0.0092 | 0.0165 ± 0.013 | 0.014 ± 0.016
6 | BE3C:EGFR | 0.0055 ± 0.011 | -0.0005 ± 0.0078 | -0.034 ± 0.0014 | -0.0165 ± 0.022 | -0.002 ± 0.018 | 0.0315 ± 0.011 | 0.002 ± 0.0028 | -0.014 ± 0.018 | 0.004 ± 0.0099 | 0.008 ± 0.042 | -0.0035 ± 0.013 | -0.011 ± 0.0071 | -0.0145 ± 0.005 | 0.001 ± 0.011 | -0.01 ± 0.017 | 0.0085 ± 0.0021 | 0.0035 ± 0.0035 | 0.0185 ± 0.0078
7 | BE3C:HLA-DR | -0.03 ± 0.011 | -0.016 ± 0.0014 | -0.163 ± 0.013 | -0.0265 ± 0.052 | -0.0075 ± 0.03 | 0.002 ± 0.0099 | -0.0175 ± 0.037 | -0.111 ± 0.005 | -0.255 ± 0.0014 | 0.0175 ± 0.026 | -0.0205 ± 0.033 | 0.0195 ± 0.011 | 0.035 ± 0.017 | -0.0045 ± 0.0021 | -0.0235 ± 0.012 | -0.0055 ± 0.005 | -0.0095 ± 0.0021 | 0.0085 ± 0.0078
8 | BE3C:IL-1alpha | -0.001 ± 0.024 | -0.0185 ± 0.0035 | -0.0065 ± 0.057 | -0.0425 ± 0.026 | -0.0345 ± 0.016 | -0.017 ± 0.0085 | 0.016 ± 0.027 | -0.0055 ± 0.0064 | -0.043 ± 0.037 | -0.025 ± 0.0028 | -0.054 ± 0.0028 | -0.0395 ± 0.0092 | -0.0225 ± 0.036 | 0.0025 ± 0.018 | 0.021 ± 0.0071 | -0.019 ± 0.0028 | -0.0175 ± 0.035 | 0.004 ± 0.018
9 | BF4T:CCL2/MCP-1 | -0.0295 ± 0.012 | -0.119 ± 0.016 | -0.227 ± 0.013 | 0.0035 ± 0.073 | -0.0015 ± 0.021 | 0.0275 ± 0.005 | 0.037 ± 0.023 | -0.019 ± 0.0028 | -0.002 ± 0.034 | -0.0085 ± 0.019 | -0.0165 ± 0.0035 | -0.017 ± 0.0014 | -0.0135 ± 0.018 | -0.0175 ± 0.00071 | 0.01 ± 0.021 | 0.007 ± 0.028 | 0.0015 ± 0.00071 | -0.004 ± 0.017
10 | BF4T:CCL26/Eotaxin-3 | 0.0395 ± 0.025 | -0.013 ± 0.021 | -0.0675 ± 0.0064 | -0.037 ± 0.068 | 0.016 ± 0.073 | 0.001 ± 0.082 | -0.0635 ± 0.05 | -0.179 ± 0.05 | -0.203 ± 0.0099 | -0.0755 ± 0.043 | -0.134 ± 0.086 | -0.115 ± 0.012 | -0.122 ± 0.03 | 0.0285 ± 0.011 | -0.0075 ± 0.0092 | -0.026 ± 0.018 | 0.009 ± 0.025 | 0.034 ± 0.021
11 | BF4T:CD54/ICAM-1 | -0.002 ± 0.023 | -0.03 ± 0.0014 | -0.0815 ± 0.0064 | -0.0055 ± 0.025 | 0.0135 ± 0.03 | -0.003 ± 0.034 | -0.006 ± 0.0014 | -0.0175 ± 0.00071 | -0.0325 ± 0.013 | -0.003 ± 0.021 | -0.0105 ± 0.011 | -0.0205 ± 0.0021 | -0.0005 ± 0.015 | -0.006 ± 0.0071 | -0.008 ± 0.0099 | 0.0025 ± 0.018 | 0.004 ± 0.0042 | 0.004 ± 0.0085
12 | BF4T:CD90 | -0.005 ± 0.0042 | -0.03 ± 0.0014 | -0.071 ± 0.0085 | -0.0285 ± 0.0078 | -0.0085 ± 0.03 | -0.0125 ± 0.0064 | -0.008 ± 0.0028 | -0.018 ± 0.0014 | -0.0355 ± 0.0092 | 0.009 ± 0.018 | -0.002 ± 0.023 | -0.005 ± 0.018 | 0.0025 ± 0.015 | 0.0085 ± 0.018 | 0 ± 0.021 | 0.001 ± 0.0042 | 0 ± 0.0028 | 0.0085 ± 0.0035
13 | BF4T:CD106/VCAM-1 | 0.0765 ± 0.0092 | -0.018 ± 0.037 | -0.0835 ± 0.043 | -0.049 ± 0.083 | 0.022 ± 0.062 | 0.0485 ± 0.083 | 0.0035 ± 0.035 | -0.0285 ± 0.03 | -0.041 ± 0.0028 | -0.019 ± 0.011 | -0.013 ± 0.028 | -0.02 ± 0.0085 | -0.049 ± 0.0042 | 0.018 ± 0.0014 | -0.003 ± 0.02 | -0.027 ± 0.0028 | -0.0185 ± 0.026 | -0.018 ± 0.023
14 | BF4T:CXCL8/IL-8 | -0.0155 ± 0.026 | -0.0265 ± 0.026 | -0.0245 ± 0.03 | 0.0235 ± 0.039 | 0.035 ± 0.0014 | 0.082 ± 0.0014 | 0.0015 ± 0.0035 | -0.0105 ± 0.0078 | -0.0055 ± 0.0078 | -0.0315 ± 0.04 | -0.0495 ± 0.046 | -0.0715 ± 0.033 | -0.0435 ± 0.00071 | -0.005 ± 0.027 | 0.012 ± 0.018 | 0.0365 ± 0.0078 | 0.034 ± 0.024 | 0.034 ± 0.016
